Measured values: PubChem BioAssay (NCI)
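Dose response: 5 concentrations. Exposure: 48 h. Format: 96-well plates. Endpoint: linear interpolation; highest concentration if not reached. Here, GI50 denotes the concentration required for 50% inhibition of growth. TGI: total growth inhibition.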

Experiments:
Test in all cases: NCI-60 cell line screen, 48 h
M14 melanoma = test system: M14 melanoma
TK-10 renal = test system: TK-10 renal
IGROV1 ovarian = test system: IGROV1 ovarian
BT-549 breast = test system: BT-549 breast
HOP-62 NSCLC = test system: HOP-62 NSCLC
SF-539 CNS = test system: SF-539 CNS
SK-MEL-5 melanoma = test system: SK-MEL-5 melanoma
UACC-62 melanoma = test system: UACC-62 melanoma

For `CCc1ccc(C2=C/C(=C/c3ccc(Cl)cc3)C(=O)N2CCc2ccc(S(N)(=O)=O)cc2)cc1`, the GI50 (M14 melanoma) was 2.08 µM, the TGI (M14 melanoma) was 5.26 µM and the GI50 (TK-10 renal) was 2.21 µM. For the same compound, the TGI (TK-10 renal) was 7.37 µM, the GI50 (IGROV1 ovarian) was 3.26 µM and the TGI (IGROV1 ovarian) was 12.7 µM. The GI50 (BT-549 breast) was 1.79 µM, the TGI (BT-549 breast) was 3.42 µM and the GI50 (HOP-62 NSCLC) was 2.42 µM. It also gave a TGI (HOP-62 NSCLC) of 5.86 µM, a GI50 (SF-539 CNS) of 2.11 µM and a TGI (SF-539 CNS) of 4.12 µM. It also gave a GI50 (SK-MEL-5 melanoma) of 1.63 µM, a TGI (SK-MEL-5 melanoma) of 3.07 µM and a GI50 (UACC-62 melanoma) of 1.82 µM. The TGI (UACC-62 melanoma) was 6.22 µM.

With `COc1cc2c(c(OC)c1OC)-c1ccc(OC)c(=O)cc1[C@@H](NC(=O)CCl)CC2` the GI50 (M14 melanoma) was less than 0.01 µM, the TGI (M14 melanoma) was less than 0.01 µM and the GI50 (TK-10 renal) was 0.0647 µM. For the same compound, the TGI (TK-10 renal) was 14.2 µM, the GI50 (IGROV1 ovarian) was less than 0.01 µM and the TGI (IGROV1 ovarian) was 21.9 µM. It also gave a GI50 (BT-549 breast) of less than 0.01 µM, a GI50 (HOP-62 NSCLC) of less than 0.01 µM and a TGI (HOP-62 NSCLC) of 10.2 µM. The GI50 (SF-539 CNS) was less than 0.01 µM, the TGI (SF-539 CNS) was 23.7 µM and the GI50 (SK-MEL-5 melanoma) was less than 0.01 µM. It also gave a TGI (SK-MEL-5 melanoma) of less than 0.0124 µM, a GI50 (UACC-62 melanoma) of less than 0.01 µM and a TGI (UACC-62 melanoma) of 20.1 µM.

`Oc1c(Br)cc(Br)cc1CN(Cc1cc(Br)cc(Br)c1O)C1CCCCC1` was tested, and the TGI (M14 melanoma) was greater than 100 µM, the TGI (TK-10 renal) was 61 µM and the TGI (IGROV1 ovarian) was greater than 100 µM. For the same compound, the TGI (BT-549 breast) was 90.9 µM, the TGI (HOP-62 NSCLC) was 97.5 µM and the TGI (SK-MEL-5 melanoma) was 34.6 µM. The TGI (UACC-62 melanoma) was greater than 100 µM.

Compound `CCN1C(=O)N(CC)C2C1NN=c1s/c(=C3\C(=O)N(CCC(C)C)c4ccccc43)c(=O)n12` (stereo not drawn) has a GI50 (TK-10 renal) of 9.44 µM, a TGI (TK-10 renal) of 71.7 µM and a GI50 (IGROV1 ovarian) of 1.23 µM. It also gave a TGI (IGROV1 ovarian) of 6.63 µM, a GI50 (BT-549 breast) of 1.96 µM and a TGI (BT-549 breast) of 6.33 µM. For the same compound, the GI50 (HOP-62 NSCLC) was 1.89 µM, the TGI (HOP-62 NSCLC) was 6.45 µM and the GI50 (SF-539 CNS) was 1.11 µM. It also gave a TGI (SF-539 CNS) of 2.42 µM, a GI50 (SK-MEL-5 melanoma) of 1.55 µM and a TGI (SK-MEL-5 melanoma) of 3.41 µM. The GI50 (UACC-62 melanoma) was 0.607 µM and the TGI (UACC-62 melanoma) was 8.04 µM.

With `C=C1C(=O)O[C@@H]2[C@H]1CC[C@H](C)[C@]1(O)CCC(=O)[C@@]21C` the TGI (TK-10 renal) was greater than 10 µM, the TGI (IGROV1 ovarian) was greater than 10 µM and the TGI (HOP-62 NSCLC) was greater than 10 µM. For the same compound, the TGI (SF-539 CNS) was greater than 10 µM, the TGI (SK-MEL-5 melanoma) was greater than 10 µM and the TGI (UACC-62 melanoma) was greater than 10 µM.

`COc1cc2[nH]c(C(=O)c3cc(OC)c(OC)c(OC)c3)c(N)c2cc1C#CCO` gave a GI50 (TK-10 renal) of 44.1 µM, a TGI (TK-10 renal) greater than 100 µM and a GI50 (IGROV1 ovarian) of 0.795 µM. For the same compound, the TGI (IGROV1 ovarian) was 68.8 µM, the GI50 (HOP-62 NSCLC) was 0.322 µM and the TGI (HOP-62 NSCLC) was greater than 100 µM. The GI50 (SF-539 CNS) was 0.138 µM, the TGI (SF-539 CNS) was 0.491 µM and the GI50 (SK-MEL-5 melanoma) was 0.087 µM. For the same compound, the TGI (SK-MEL-5 melanoma) was 1.3 µM, the GI50 (UACC-62 melanoma) was 7.56 µM and the TGI (UACC-62 melanoma) was greater than 100 µM.

`CCC1CCc2nc3sc(C(=O)Nc4ccccc4F)c(N)c3cc2C1` (stereo not drawn) was tested, and the GI50 (IGROV1 ovarian) was greater than 100 µM, the TGI (IGROV1 ovarian) was greater than 100 µM and the GI50 (BT-549 breast) was greater than 100 µM. It also gave a TGI (BT-549 breast) greater than 100 µM, a GI50 (HOP-62 NSCLC) greater than 100 µM and a TGI (HOP-62 NSCLC) greater than 100 µM. For the same compound, the TGI (SF-539 CNS) was greater than 100 µM, the GI50 (SK-MEL-5 melanoma) was 0.656 µM and the TGI (SK-MEL-5 melanoma) was greater than 100 µM. For the same compound, the GI50 (UACC-62 melanoma) was 0.523 µM and the TGI (UACC-62 melanoma) was greater than 100 µM.

In the case of `C[C@H](c1ccc(Cl)cc1N)N1C(=O)c2cc(I)ccc2N(CCCN2CCN(C)CC2)C(=O)[C@@H]1c1ccc(Cl)cc1`, the GI50 (M14 melanoma) is reported as 1.96 µM, the TGI (M14 melanoma) is reported as 3.65 µM and the GI50 (TK-10 renal) is reported as 1.61 µM. It also gave a TGI (TK-10 renal) of 3.07 µM, a GI50 (IGROV1 ovarian) of 1.29 µM and a TGI (IGROV1 ovarian) of 3.12 µM. For the same compound, the GI50 (SK-MEL-5 melanoma) was 1.57 µM, the TGI (SK-MEL-5 melanoma) was 2.92 µM and the GI50 (UACC-62 melanoma) was 1.23 µM. It also gave a TGI (UACC-62 melanoma) of 2.54 µM.

In the case of `CC(C)(Cl)CCC1=C(Cl)C(=O)c2ccccc2C1=O`, the GI50 (M14 melanoma) is reported as 2.28 µM, the TGI (M14 melanoma) is reported as 5.51 µM and the GI50 (IGROV1 ovarian) is reported as 2.35 µM. For the same compound, the TGI (IGROV1 ovarian) was 5.22 µM, the GI50 (BT-549 breast) was 2.35 µM and the TGI (BT-549 breast) was 8.78 µM. The GI50 (HOP-62 NSCLC) was 4.71 µM, the TGI (HOP-62 NSCLC) was 17 µM and the GI50 (SF-539 CNS) was 2.01 µM. The TGI (SF-539 CNS) was 4.58 µM, the GI50 (SK-MEL-5 melanoma) was 1.78 µM and the TGI (SK-MEL-5 melanoma) was 3.57 µM.
